Patent publication US20180119171A1, “REPLICATIVE VACCINIA VIRUS VECTOR HIV VACCINE” (priority 2014, published 2018)

Assays:
VTT [1] = type: cell-based, vaccinia virus Tiantan strain
TT-TK [2] = type: cell-based, recombinant vaccinia virus Tiantan strain
TT-EnvTK = type: cell-based, recombinant vaccinia virus Tiantan strain
VTT [3] = test system: VTT; parameters: species or system C57BL mice; conditions: mouse, in vivo
TT-TK [4] = test system: TT-TK; parameters: species or system C57BL mice; conditions: mouse, in vivo
vaccinia virus = conditions: reference [10]; cited from earlier work

Question: With `Nc1nc(O)c2ncn(COC(CO)CO)c2n1` [GCV, ganciclovir] as the molecule, how does the “inhibition effect on virus plaque number, VTT” value (VTT [1]) read?
Answer: no inhibition effects

Question: What about the “inhibition effect on virus plaque number, TT-TK” value (TT-TK [2]) of the same molecule?
Answer: clear inhibition effects

Question: What about the “inhibition effect on virus plaque number, TT-EnvTK” value (TT-EnvTK) of the same molecule?
Answer: clear inhibition effects

Question: And the “virus titre in mice ovaries, VTT inoculation, GCV injected” value (VTT [3])?
Answer: 1×10^6 PFU

Question: And the “virus titre in mice ovaries, TT-TK inoculation, GCV injected” value (TT-TK [4])?
Answer: No virus was detected

Question: What about the EC50 (vaccinia virus) of the same molecule?
Answer: > 300 µM
